Experimental data taken from article PMC10302146, “Dual Anta-Inhibitors Targeting Protein Kinase CK1δ and A2A Adenosine Receptor Useful in Neurodegenerative Disorders” (Molecules, 2023).

Columns and labels:
human recombinant A3AR = biological target: human recombinant A3AR; set-up: method as in PMID 37259317; conditions: [3H]HEMADO, membranes from CHO cells stably transfected; means ± standard errors; read-out: KiA3; cited from earlier work
human recombinant A1AR = biological target: human recombinant A1AR; set-up: method as in PMID 37259317; conditions: [3H]CCPA, membranes from CHO cells stably transfected; means ± standard errors; read-out: KiA1; cited from earlier work
human recombinant A2AAR = biological target: human recombinant A2AAR; set-up: method as in PMID 37259317; conditions: [3H]NECA, membranes from CHO cells stably transfected; means ± standard errors; read-out: KiA2A; cited from earlier work
N13 microglial cells [1] = experiment: N13 cell viability (CellTiter 96 AQueous One, MTS), ligands alone; assay type: cell-based; conditions: absence of CK cocktail
Method: Starting from these observations, since this double effect could be a suitable strategy for the treatment of chronic neurodegenerative diseases, in which neuroinflammation plays a crucial role, these compounds were tested on an in vitro model of neuroinflammation in comparison with the reference compounds. The experiments were performed using N13 microglial cells. The colorimetric method CellTiter 96® AQueous One Solution Cell Proliferation assay was used to determine the number of live cells in cytotoxicity or proliferation assays. The tetrazole compound MTS was bio-reduced by the cells into formazan, a colored product soluble in the cellular medium. The percentage of cell viability was analyzed through an absorbance reading at 492 nm. The concentrations of ligands were chosen based on the results of binding assays. Specifically, lower, similar, and higher concentrations than the Ki value were used.
Experiments were performed in triplicate.

N13 microglial cells [2] = experiment: N13 cell viability, CK cocktail 48 h pretreatment then ligand (A2AAR antagonist protocol); conditions: for effect after CK cocktail damage in the presence of NECA: compound 1 7.5 µM, compound 2 4.5 µM, NECA 10 µM; for effect after CK cocktail damage in the presence of NECA / counteraction of CK cocktail effect (cell viability): 60 min; for effect after CK cocktail damage in the presence of NECA / rescue of inflammatory damage (cell viability): after CK cocktail 20 ng/mL 48 h; for rescue of inflammatory damage (cell viability) / counteraction of CK cocktail effect (cell viability): lower concentrations (0.625 µM compound 1, 0.375 µM compound 2); for rescue of inflammatory damage (cell viability): 30 min; for counteraction of CK cocktail effect (cell viability): after CK cocktail 48 h
Method: Given the nature of compounds, dual A2A/CK1δ anta-inhibitors, their neuroprotective effect against a neuroinflammatory insult was investigated following two different approaches aimed at studying the antagonist activity on the A2AAR and the inhibitor effect on CK1δ. […] The concentrations used were 35, 65, and 400 µM at 60 min of incubation.
N13 cells were plated in 96-well plates at the confluence of 1 × 10^4 cells/well and incubated overnight. Cells were divided into two groups in order to study the activity of compounds on A2AAR and CK1δ (Scheme 1). […] Cells of the second group were pretreated with 2 µL at different concentrations of understudy ligand, or the reference compound PF670462, for 30 or 60 min and then with further addition of a proinflammatory cocktail of cytokines for 48 h (Scheme 1). After treatment, 20 µL of CellTiter 96® AQueous One Solution Reagent was added to each well to a final volume of 100 µL. After 1 h of incubation, absorbance was measured at 492 nm in the microplate reader GENiosPro. Cell viability was estimated as the relation between the OD of treated cells and the OD of untreated cells in percentage. An untreated control and a control with the solvent were run. Experiments were performed in triplicate.

N13 microglial cells [3] = experiment: N13 cell viability, ligand pretreatment 60 min then CK cocktail 48 h (CK1δ inhibition protocol); assay type: cell-based
N13 cell line = experiment: Griess assay, nitrite production (antioxidant effect); assay type: cell-based; conditions: for antioxidant activity (Griess Reagent System): compound 1 7500 nM, incubated for 1 hr, vs. ZM241385 10 nM
Text: In addition, since oxidative stress has received extensive attention as one important entry point in the pathogenesis of neurodegenerative diseases, the potential antioxidant profile of compounds 1 and 2 was investigated. Oxidative stress and neuroinflammation play synergistic roles in the promotion of neurodegenerative disease progression. During a CNS insult, there is an activation of microglial cells, which stimulate immune responses to instigate tissue repair. If the triggering cause of the immune response is eradicated, the immune response resolves, but if the initial stress persists, it will lead to an overproduction of neurotoxic factors such as chemokines and proinflammatory cytokines such as Tumor Necrosis Factor-α (TNF-α) and Interleukin-1β (IL-1β). This pathological state will lead to an overproduction of ROS and a state of oxidative stress. High levels of ROS inactivate or damage proteins, leading to cellular degeneration and death. Furthermore, ROS can activate proinflammatory pathways, further promoting a harmful environment for vulnerable neurons. In light of this, the potential antioxidant capacity of compounds was studied. […] The combination of anti-inflammatory and antioxidant activities makes compound 2 particularly appealing in counteracting two of the factors involved in the pathogenesis of neurodegenerative pathologies.
The N13 cell line was introduced into a 96-well UV-VIS transparent plate at a population of 1 × 10^4 cells per well in 98 μL of DMEM and incubated overnight. […] After 24 h of incubation, the media from each well was transferred into another 96-well plate, and then 50 µL of the sulphanilamide solution was placed into the wells. After 10 min of incubation at room temperature (rt), 50 µL of the NED solution was dispensed to all wells, and the plate was incubated at rt for an additional 5–10 min. After half an hour, absorbance was measured in the microplate reader GENiosPro using a 520–550 nm filter. All measurements were reproduced in 3–5 replicates. The nitric oxide formation was investigated by measuring nitrite (NO^2−), which is one of two primary breakdown products of NO. A nitrite standard reference curve was used for quantitative evaluation of the concentration of NO^2− in samples.

CK1δ = test system: CK1δ; set-up: method as in PMID 37259317; conditions: cited from earlier work; for IC50: enzymatic inhibition

SMILES	Ki (human recombinant A3AR) [µM]	Ki (human recombinant A1AR) [µM]	Ki (human recombinant A2AAR) [µM]	effect after CK cocktail damage in the presence of NECA (N13 microglial cells [2])	rescue of inflammatory damage (cell viability) (N13 microglial cells [2])	counteraction of CK cocktail effect (cell viability) (N13 microglial cells [2])	antioxidant activity (Griess Reagent System) (N13 cell line; compound 2 4500 nM)	% Residual Activity at 10 μM ± sd (CK1δ) [%]	% Residual Activity at 40 μM ± sd (CK1δ) [%]	IC50 (CK1δ) [µM]	also measured
CN(C)c1nc(N)c2ncn(C3CCCC3)c2n1 [compound 1, 9-Cyclopentyl-N2,N2-dimethyl-9H-purine-2,6-diamine]	2.88 ± 0.695	3.34 ± 0.658	0.123 ± 0.002	significantly lower than that obtained in the absence of NECA	unable to rescue the inflammatory damage	able to counteract the effect of the CK cocktail	no significant antioxidant activity	27 ± 4.0	19 ± 9.4	1.75 ± 0.2	cell viability vs. control (N13 microglial cells [1]; 0.625 µM, 30 min): 112% ± 2.4; cell viability vs. control (N13 microglial cells [1]; 7.5 µM, 30 min): lower cell viability with respect to the control; cell viability vs. control (N13 microglial cells [1]; 7.5 µM, 60 min): cell viability similar to the control; viability at 7.5 µM (N13 microglial cells [2]; N13, 48 h, read-out: cell viability): 89%; viability at 40 µM (N13 microglial cells [3]; N13, 40 µM 60 min before CK cocktail 48 h, CK cocktail alone 79% ± 1.1 vs. control): 85%
CN(C)c1nc(NCc2nc3ccccc3[nH]2)c2ncn(C3CCCC3)c2n1 [compound 2, N^6-methyl-(2-benzimidazolyl)-2-dimethyamino-9-cyclopentyladenine]	1.15 ± 0.107	2.9 ± 0.648	0.0762 ± 0.173	significantly lower than that obtained in the absence of NECA	unable to rescue the inflammatory damage	able to counteract the effect of the CK cocktail	important antioxidant effect similar to that of the reference compound	34 ± 5.0	22 ± 1.0	0.59 ± 0.2	cell viability vs. control (N13 microglial cells [1]; 0.375 µM, 30 min): 86% ± 1.2; cell viability vs. control (N13 microglial cells [1]; 4.5 µM, 60 min): 109% ± 1.4; cell viability vs. control (N13 microglial cells [1]; 0.375 and 0.75 µM, 60 min): decrease in cell viability similar to 30 min of incubation; cell viability vs. control (N13 microglial cells [1]; all concentrations (0.375, 0.75, 4.5 µM), 30 min): decrease in cell viability; cell viability (N13 microglial cells [2]): 125% ± 3.1; cell viability (N13 microglial cells [3]; 25 µM 60 min before CK cocktail 48 h, CK cocktail alone 79% ± 1.1 vs. control (Figure 6)): 94% ± 2.2; effect of NECA on the neuroprotective effect of the compound (N13 microglial cells [3]; compound 25 µM 60 min before CK cocktail 48 h, then NECA 10 µM): ineffective; amount of nitrite produced vs. control (N13 cell line; 4500 nM): inferior to that revealed in the control; compensation of oxidative stress caused by the CK cocktail (N13 cell line; compound 2 4500 nM, ZM241385 10 nM): successfully compensated
